Assay results from publication PMC7013880, “Synthesis of Spin-Labelled Bergamottin: A Potent CYP3A4 Inhibitor with Antiproliferative Activity” (International Journal of Molecular Sciences, 2020).

How the values were obtained:
[1] = system: HeLa cells; assay: WST-1 cell viability assay, HeLa cells; format: cell-based; conditions: HeLa human cervix carcinoma cells, 24 h treatment
Description: (§1) Murine embryonic fibroblast NIH3T3 cells were maintained in DMEM (Cat No. 043-30085, Wako Pure Chemical, Osaka, Japan) supplemented with 10% newborn calf serum (NBCS) at 37 °C and 5% CO2. Human cervix carcinoma HeLa cells were maintained in DMEM supplemented with 10% fetal bovine serum at 37 °C and 5% CO2. To determine the toxicity of BM and SL-BM, the WST-1 cell viability assay was employed as described previously. The cells (NIH3T3: 2000 per well; HeLa: 5000 per well) were seeded into all the wells of 96-well plates. After 24 h, the medium was replaced, and the cells were treated with the test compounds for 24 h. Then, the cells were incubated with a WST-1 solution (3.6 µg/µL WST-1, 70 ng/µL 1-methoxy phenazine methosulfate in 20 mM 4-(2-hydroxyethyl)-1-piperazineethanesufonic acid–KOH (pH 7.4); Dojindo, Kumamoto, Japan) for 1 h at 37 °C, and the absorbance of each well was recorded at 440 nm using a Multiskan FC microplate reader (Thermo Fisher Scientific).

[2] = system: NIH3T3 cells; assay: WST-1 cell viability assay, NIH3T3 fibroblasts; format: cell-based; conditions: Mus musculus, NIH3T3 murine embryonic fibroblasts, 24 h treatment
Description: as §1

[3] = target: CYP2C19 (Homo sapiens, UniProt P33261); assay: CYP2C19 inhibition assay (CypExpress 2C19 kit, S-mephenytoin substrate, HPLC); conditions: relative to BM
Sequence of CYP2C19 (P33261 whole entry): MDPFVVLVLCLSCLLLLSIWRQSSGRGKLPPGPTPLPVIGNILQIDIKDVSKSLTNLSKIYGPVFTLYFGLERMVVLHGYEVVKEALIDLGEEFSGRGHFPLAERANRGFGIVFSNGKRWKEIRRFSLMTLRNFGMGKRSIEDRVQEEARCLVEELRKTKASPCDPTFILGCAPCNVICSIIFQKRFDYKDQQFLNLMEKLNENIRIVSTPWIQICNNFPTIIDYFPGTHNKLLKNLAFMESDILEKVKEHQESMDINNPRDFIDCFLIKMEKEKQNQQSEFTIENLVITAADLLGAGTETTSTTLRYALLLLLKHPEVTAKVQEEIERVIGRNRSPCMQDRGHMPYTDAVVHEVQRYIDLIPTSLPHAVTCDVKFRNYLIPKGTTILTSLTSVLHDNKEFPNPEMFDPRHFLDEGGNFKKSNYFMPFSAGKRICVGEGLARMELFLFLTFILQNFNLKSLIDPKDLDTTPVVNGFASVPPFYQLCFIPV
Description: (§2) Stock solutions of BM, SL-BM, and positive controls (each 5000 μM) were prepared in dimethyl sulfoxide (Fluka) and stored at –20 °C. The inhibitory effects of BM and SL-BM on the CYP2C9, 2C19, and 3A4 enzymes were examined using CypExpress^TM assay kits by employing diclofenac, S-mephenytoin, and testosterone substrates, respectively.
(§3) The substrates and products were analyzed using the HPLC system comprising a pump (Waters 510; Milford, MA, USA), an injector (Rheodyne 7125) with a 20 μL sample loop, and a UV detector (Waters 486). The data were evaluated by employing Millennium Chromatographic Manager software (Waters). HPLC analyses of diclofenac and 4′-hydroxydiclofenac (CYP2C9 assay) [39, 40], S-mephenytoin, and 4-hydroxymephenytoin [42] as well as testosterone and 6β-hydroxytestosterone (CYP3A4 assay) [41] were performed as described previously.
(§4) Data were derived from at least three independent experiments and represented as the mean ± the standard error of the mean (SEM) values. The statistical significance (p < 0.05 and p < 0.01) was established by employing a one-way ANOVA test (IBS SPSS Statistics, v. 21; Armonk, NY, USA). The metabolite formation (% of control) was plotted as a function of the logarithmic concentrations, and then the IC50 values were determined using GraphPad Prism 8 software (San Diego, CA, USA).

[4] = target: CYP2C9 (Homo sapiens, UniProt P11712)
Sequence of CYP2C9 (P11712 whole entry): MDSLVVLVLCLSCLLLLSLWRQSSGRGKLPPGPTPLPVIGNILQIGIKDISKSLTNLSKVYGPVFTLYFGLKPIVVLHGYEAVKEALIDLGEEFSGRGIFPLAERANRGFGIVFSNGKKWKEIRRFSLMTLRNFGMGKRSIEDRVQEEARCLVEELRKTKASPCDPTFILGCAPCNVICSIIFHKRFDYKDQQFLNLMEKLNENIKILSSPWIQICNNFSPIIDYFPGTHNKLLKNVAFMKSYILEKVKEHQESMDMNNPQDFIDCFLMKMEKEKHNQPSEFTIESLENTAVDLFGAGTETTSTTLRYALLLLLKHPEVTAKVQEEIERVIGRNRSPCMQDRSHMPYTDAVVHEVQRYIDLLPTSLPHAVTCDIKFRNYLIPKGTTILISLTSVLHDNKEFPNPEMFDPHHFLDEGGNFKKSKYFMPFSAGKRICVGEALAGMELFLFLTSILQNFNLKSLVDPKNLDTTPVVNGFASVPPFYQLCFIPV
Description: as §2, §3, §4

| Compound | IC50 [1] [µM] | IC50 [2] [µM] | fold weaker inhibitor of CYP2C19 than BM [3] [fold] | melting point [°C] | IC50(rel): IC50 of the inhibitor divided by the substrate concentration [4] | α: IC50 of the inhibitor divided by the IC50 value of the positive control [4] |
| --- | --- | --- | --- | --- | --- | --- |
| CC(C)=CCC/C(C)=C/COc1c2ccoc2cc2oc(=O)ccc12 [Bergamottin, 5-geranoxypsoralen] | > 50 | > 50 |  |  |  |  |
| C/C(=C\COc1c2ccoc2cc2oc(=O)ccc12)CCC=C1CC(C)(C)N([O])C(C)(C)C1 [SL-Bergamottin] | 17.3 | > 50 | ~15 | 51 to 53 |  |  |
| CC(=O)CC(c1ccccc1)c1c(O)c2ccccc2oc1=O (centres unmarked) [Warfarin, warfarin] |  |  |  |  | 1.96 | 1.00 |
